Reference: PubChem BioAssay AID720598 (Broad Institute, 2013)

System: HT-29 viability, CellTiter-Glo ATP luminescence, 8-48 h
Experiment: time-course viability loss in HT-29 cells – cell-based, CellTiter-Glo, multiple timepoints, dry powder, HRas target identification project, dose response (AID 720598)

CCC(=O)N(c1ccc(OC)c(Cl)c1)C(C(=O)NCCc1ccccc1)c1cccs1 (stereo unspecified)
AC50 (measured here: 48 h treatment): > 70000 nM

COC(=O)c1ccc([C@@H]2c3[nH]c4ccccc4c3C[C@@H](C(=O)OC)N2C(=O)CCl)cc1
AC50 (measured here: 8 h treatment): 486 nM | AC50 (measured here: 24 h treatment): 133 nM | AC50 (measured here: 48 h treatment): 85.6 nM

COc1ccc(N(C(=O)CCl)C(C(=O)NCCc2ccccc2)c2cccs2)cc1Cl (stereo unspecified)
AC50 (measured here: 8 h treatment): 729 nM | AC50 (measured here: 24 h treatment): 103 nM | AC50 (measured here: 48 h treatment): 56.1 nM

CC(C)(C)OC(=O)NCCOCCOCCOc1ccc(N(C(=O)CCl)C(C(=O)NCCc2ccccc2)c2cccs2)cc1Cl (stereo unspecified)
AC50 (measured here: 8 h treatment): 742 nM | AC50 (measured here: 24 h treatment): 448 nM | AC50 (measured here: 48 h treatment): 287 nM

Cc1onc(C(=O)N2CCN(C(c3ccc(Cl)cc3)c3ccc(Cl)cc3)CC2)c1[N+](=O)[O-]
AC50 (measured here: 8 h treatment): 2760 nM | AC50 (measured here: 24 h treatment): 594 nM | AC50 (measured here: 48 h treatment): 544 nM

C#CCCCC(=O)NCCOCCOCCOc1ccc(N(C(=O)CCl)C(C(=O)NCCc2ccccc2)c2cccs2)cc1Cl (stereo unspecified)
AC50 (measured here: 8 h treatment): 11900 nM | AC50 (measured here: 24 h treatment): 1510 nM | AC50 (measured here: 48 h treatment): 1300 nM
